In US20220218614A1, “IONIZABLE CATIONIC LIPIDS AND LIPID NANOPARTICLES, AND METHODS OF SYNTHESIS AND USE THEREOF” (Tidal Therapeutics, Inc., priority 2020, published 2022):
Several values for one entry are separate records, joined by “and”; a condition that tells them apart may be missing. Identical values can stand only once. Entries after “also recorded” stand apart in the source; their conditions may differ.

Assays:
[1] = Apparent pKa of LNPs by TNS fluorescent probe; format: physicochemical; conditions: LNP made with the named ionizable lipid; pH at 50% of maximum TNS fluorescence
Description: This example describes the fluorescent dye based method used for measurement of the apparent pKa of the lipid nanoparticles. Apparent pKa determines the nanoparticle surface charge under physiological pH conditions, typically a pKa value in the endosomal pH range (6-7.4) results in LNPs that are neutral or slightly charged at plasma or the extracellular space (pH 7.4) and become strongly positive under acidic endosomal environments. This positive surface charge drives fusion of the LNP surface with negatively charged endosomal membranes resulting in destabilization and rupture of the endosomal compartment and LNP escape into the cytosolic compartment, a critical step in cytosolic delivery of mRNA and protein expression via engagement of the cells ribosomal machinery.
The apparent pKa of LNPs made using ionizable Lipids 2, 5 (synthesized as described in example 1), 6 and 7 (synthesized using method analogous to Lipid 2, 5, respectively, except using diethyl amine instead of dimethyl amine to incorporate the tertiary amine head group) were determined by 6-(p-Toluidino)-2-naphthalenesulfonic acid (TNS) fluorescence measurement in aqueous buffers covering a range of pH values (pH 4-pH 10). TNS is non-fluorescent when free in solution, but which fluoresces strongly when associated with a positively charged lipid nanoparticle. At a pH values below the pKa of the nanoparticle, positive LNP surface charge results in dye recruitment at the particle interface resulting in TNS fluorescence. At pH values above the LNP pKa no fluorescence is observed. The apparent pKa of the LNP is reported as the pH at which the fluorescence is at 50% of its maximum, as determined using a four-point logistic curve fit.

[2] = tested on: primary human T-cells (CD3+ T cells); assay: In vitro LNP transfection of primary human T-cells (GFP, Cy5 or DiI, viability by FACS); format: cell-based
Description: This example describes the protocol used for in vitro LNP transfections in primary human T-cells. This method is used to assess LNP in vitro efficacy in relevant target cells (CD3+ T cells) by first transfecting the cells using LNPs loaded with mRNA encoding for a reporter gene, such as GFP mRNA, and then assessing transfection by measuring reporter gene expression by fluorescence-[…] cell sorting (FACS). Additionally, particle association with cells may be observed by in the same assay by labeling individual nanoparticle components, such as the mRNA, with a fluorescent dye, such as Cy5, and then observing cell/dye association by FACS.
CD3+ T cells were isolated from frozen peripheral blood mononuclear cells using an EasySep Human T Cell Isolation Kit on a RoboSep automated cell isolation system from […]. T cells were plated into a flat bottom 96-well plate in RPMI cell culture media supplemented with glutamax, 10% fetal bovine serum, and 40 ng/mL IL2. 100 μL of cell suspension was seeded per well at a density of 1M T cells/mL (100K T cells/well). Cells were allowed to rest for two hours in a 37° C. incubator, and then were transfected by gently adding 10 μL of a 22 μg/mL (by mRNA) nanoparticle suspension, resulting in a final mRNA concentration of 2 μg/mL. Cells were gently mixed with a pipette and then incubated for 24 hours in a 37° C. incubator. After incubation the cells were analyzed using an ThermoFisher Attune NXT flow cytometer. Cy5 was detected using a 638 nm laser with 670/14 nm filter. eGFP was detected using a 488 nm laser and a 530/30 nm filter. Data were analyzed using FlowJo software from BD biosciences. FACS data were first gated to exclude doublets and dead cells and then gated for GFP and Cy5. Gates for GFP+ and Cy5+were set such that a control sample (PBS treated T cells) was <0.1% positive.
CD3+ T cells were isolated from frozen peripheral blood mononuclear cells using an EasySep Human T Cell Isolation Kit on a RoboSep automated cell isolation system from […]. T cells were plated into a round bottom 96-well plate in RPMI cell culture media supplemented with glutamax, 10% fetal bovine serum, pen-strep, and 40 ng/mL IL-2. 100 μL of cell suspension was seeded per well at a density of 1M T cells/mL (100K T cells/well). Cells were allowed to rest for two hours in a 37° C. incubator, and then were transfected by gently adding 10 μL of a 22 μg/mL (by mRNA) nanoparticle suspension, resulting in a final mRNA concentration of 2 μg/mL (unless otherwise noted). Cells were gently mixed with a pipette and then incubated for 24 hours in a 37° C. incubator. After incubation the cells were diluted with FACS buffer (BD 554657) and analyzed using a BD Fortessa flow cytometer. Data were analyzed using FlowJo software from BD biosciences.

[3] = tested on: human T cells in PBMC-engrafted NSG mice; assay: In vivo reprogramming of immune cells with DiI LNP expressing GFP in PBMC-humanized NSG mice; parameters: species or system mouse; conditions: 24 h
Protocol: The NSG (NOD.Cg-Prkdcscid Il2rgtmlWjl/SzJ) mouse model was purchased from Jax Laboratories. 6-8 weeks old male mice were engrafted with 10 million PBMC of qualified donor in sterile PBS by tail vein injection. Individual body weight was monitored twice a week and blood samples were collected at appropriate interval to evaluate human immune cells engraftment.
50 μl blood was collected by tail vein bleed from each mouse. Red blood cells were lysed using Versalyse, RBC lysis solution following protocol as instructed by manufacturer (Beckman Coulter A09777). Cells were stained with hCD45 & hCD3 to determine the engraftment of human T-cells. After 15 days of PBMC injection, mice had anywhere from 30-60% huCD45+. These humanized mice were evaluated for reprogramming of immune cells by LNPs expressing DiI dye and GFP.
At time zero, mice (n=4 per group) were injected with GFP expressing DiI LNPs (by i. v. at 0.3 mg/kg or 0.1 mg/kg with appropriate buffer. At each time point, 24 or 48h depending on the example mice treated with either LNPs or buffer were sacrificed. Terminal blood and tissues collection was performed to determine DiI and GFP expression in different organs and immune cells as below.
At above specified timepoints, mice were anesthetized with CO2 before sample collection. For blood collection, the chest was opened to expose the heart. […]

In the case of `CCCCC/C=C\C/C=C\CCCCCCCC(=O)OC[C@H](CCN(C)C)OC(=O)CCCCCCC/C=C\C/C=C\CCCCC` [Lipid 5], the “apparent pKa of LNP (TNS)” value [1] is reported as 6.9 and ~7, the “GFP MFI, fold relative to DLn-MC3-DMA” value ([2]; 0.5 ug/mL and 1.0 ug/mL dose/well) is reported as greater than 5 fold and the T-cell viability ([2]; all three dose levels (0.125, 0.5 and 2 ug mRNA/mL per well), PBS control about 50%) is reported as 40-45%. For the same molecule, the “GFP protein expression (% GFP+ cells, GFP MFI), in words” value ([2]; hSP34 targeted LNP with GFP mRNA, 24 hours) was “Dose dependent expression of GFP protein; also recorded: greater overall protein expression at all three mRNA dose levels; also recorded: outperformed both Lipid 8 and DLn-MC3-DMA”, the “LNP association with cells (% Cy5+/Cy5 MFI or % DiI+/DiI MFI), in words” value ([2]; hSP34 targeted LNP, 24 hours) was “equally associated with cells” and the “T-cell viability / tolerability, in words” value ([2]; hSP34 targeted LNP, 24 hours, dose as in the value) was “well tolerated by T-cells at and below 0.5 μg/mL dose; also recorded: consistently better tolerated by T-cells; also recorded: well tolerated by T-cells at and below 1.0 μg/mL dose; also recorded: better tolerated at higher doses; also recorded: least toxic at 1 ug/mL dose”. For the same molecule, the “GFP expression of T cells in blood and lung” value ([3]; 0.1 mg/kg, CD3 (hsp34) targeted LNP, DPG-PEG-1.5%) was “about 25%” and the “in vivo reprogramming (GFP, DiI) of T cells, in words” value ([3]; 0.3 mg/kg (0.1 mg/kg in Example 30)) was “superior for reprogramming T cells”.
